This is an account of results in patent publication US20190161480A1, “Chemical Compounds” (GLAXOSMITHKLINE INTELLECTUAL PROPERTY DEVELOPMENT LIMITED, priority 2016, published 2019).

Assay type in all cases: biochemical
One assay concerns the target PI3Kδ (Homo sapiens, UniProt O00329). Kind of assay: PI3K HTRF assay, PI3K-delta. Note: 80 µM ATP. Conditions: read-out: pIC50 PI3Kδ (converted). On the procedure: (§1) The binding of compounds to PI3K-alpha/beta/delta/gamma is determined by homogeneous time resolved fluorescence (HTRF) assays as follows;
(§2) Briefly, solid compound is dissolved in 100% DMSO at a concentration of 2 mM. Dilutions are prepared in 100% DMSO using a 1 in 4 serial step dilution. The dilutions are transferred to black low volume Greiner assay plates ensuring that the DMSO concentration is constant across the plate at 1% (0.1 μL/well).
(§3) PI3K Reaction Buffer (contains 50 mM HEPES pH 7.0 (NaOH), 150 mM NaCl, 10 mM MgCl2, 2.3 mM sodium cholate, […] CHAPS made up in milliQ water). Fresh DTT is added at a final concentration of 1 mM on the day of use.
(§4) Enzyme solutions: 1× PI3K Assay Buffer containing: • 550 pM PI3K-Alpha enzyme (275 pM final assay concentration) • 800 pM PI3K-Beta enzyme (400 pM final assay concentration) • 3 nM PI3K-Delta enzyme (1.5 nM final assay concentration) • 10 nM PI3K-Gamma enzyme (5 nM final assay concentration)
(§5) These concentrations are optimal to achieve a signal:background of between 1.5-4.5. The enzyme solution is added to columns 1-24 (3 μL/well) and plates are incubated for 15 minutes at room temperature.
(§6) Substrate solution: 1× PI3K Assay Buffer containing: • PI3K-Alpha: 500 μM ATP, 20 μM PIP2 and 120 nM biotin-PIP3.
(§7) This is added to all wells and plates are incubated for 1 hour at room temperature.
(§8) Detection solution: PI3K Detection Buffer (contains 50 mM HEPES pH 7.0 (HCl), 150 mM NaCl, 2.3 mM sodium cholate, 10 μM CHAPS, 240 mM potassium fluoride) containing 2 mM DTT (2× final assay concentration), 90 nM GRP-1 PH domain, 300 nM Streptavidin-APC and 24 nM Europium-anti-GST (6× final assay concentrations).
(§9) This is mixed left at room temperature (protected from light).
(§10) STOP solution: PI3K STOP Buffer (contains 50 mM HEPES pH 7.0 (HCl), 150 mM NaCl, 2.3 mM sodium cholate, 10 μM CHAPS, 150 mM EDTA).
(§11) Detection solution is diluted 1:1 with STOP solution and added to all wells (3 μL/well). Plates are covered and incubated on the bench for 45-60 minutes.
(§12) Plates are read on a PerkinElmer Envision, measuring TR-FRET between the complex formed between the GST-tagged PH domain and biotinylated PIP3 which both recruit fluorophores (Europium-labelled anti-GST & Strep-APC respectively). In the […] of an inhibitor, this complex is disrupted by the competitive action of non-biotinylated PIP3 (formed in the assay by the phosphorylation of PIP2 by the kinase & ATP). From this, the ratio of acceptor/donor was calculated (λex=317 nm, Δem donor=615 nm, Δem acceptor=665 nm) and used for data analysis.

For a further assay, the target named is PI3Kα (Homo sapiens, UniProt P42336). Briefly: PI3K HTRF assay, PI3K-alpha. Note: 250 µM ATP. Conditions: read-out: pIC50 PI3Kα (converted). Here is the method: as §1, §2, §3, §4, §5, §6, §7, §8, §9, §10, §11, §12
For orientation: In TR-FRET formats the signal depends on donor and acceptor labels being close together.

A further assay addresses PI3Kβ (Homo sapiens, UniProt P42338). Briefly: PI3K HTRF assay, PI3K-beta. Note: 400 µM ATP. Conditions: read-out: pIC50 PI3Kβ (converted). On the procedure: as §1, §2, §3, §4, §5, §6, §7, §8, §9, §10, §11, §12
Another assay has as its target PI3Kγ (Homo sapiens, UniProt P48736). Briefly: PI3K HTRF assay, PI3K-gamma. Note: 15 µM ATP. Conditions: read-out: pIC50 PI3Kγ (converted). On the procedure: as §1, §2, §3, §4, §5, §6, §7, §8, §9, §10, §11, §12

Chain of PI3Kδ (O00329 whole entry): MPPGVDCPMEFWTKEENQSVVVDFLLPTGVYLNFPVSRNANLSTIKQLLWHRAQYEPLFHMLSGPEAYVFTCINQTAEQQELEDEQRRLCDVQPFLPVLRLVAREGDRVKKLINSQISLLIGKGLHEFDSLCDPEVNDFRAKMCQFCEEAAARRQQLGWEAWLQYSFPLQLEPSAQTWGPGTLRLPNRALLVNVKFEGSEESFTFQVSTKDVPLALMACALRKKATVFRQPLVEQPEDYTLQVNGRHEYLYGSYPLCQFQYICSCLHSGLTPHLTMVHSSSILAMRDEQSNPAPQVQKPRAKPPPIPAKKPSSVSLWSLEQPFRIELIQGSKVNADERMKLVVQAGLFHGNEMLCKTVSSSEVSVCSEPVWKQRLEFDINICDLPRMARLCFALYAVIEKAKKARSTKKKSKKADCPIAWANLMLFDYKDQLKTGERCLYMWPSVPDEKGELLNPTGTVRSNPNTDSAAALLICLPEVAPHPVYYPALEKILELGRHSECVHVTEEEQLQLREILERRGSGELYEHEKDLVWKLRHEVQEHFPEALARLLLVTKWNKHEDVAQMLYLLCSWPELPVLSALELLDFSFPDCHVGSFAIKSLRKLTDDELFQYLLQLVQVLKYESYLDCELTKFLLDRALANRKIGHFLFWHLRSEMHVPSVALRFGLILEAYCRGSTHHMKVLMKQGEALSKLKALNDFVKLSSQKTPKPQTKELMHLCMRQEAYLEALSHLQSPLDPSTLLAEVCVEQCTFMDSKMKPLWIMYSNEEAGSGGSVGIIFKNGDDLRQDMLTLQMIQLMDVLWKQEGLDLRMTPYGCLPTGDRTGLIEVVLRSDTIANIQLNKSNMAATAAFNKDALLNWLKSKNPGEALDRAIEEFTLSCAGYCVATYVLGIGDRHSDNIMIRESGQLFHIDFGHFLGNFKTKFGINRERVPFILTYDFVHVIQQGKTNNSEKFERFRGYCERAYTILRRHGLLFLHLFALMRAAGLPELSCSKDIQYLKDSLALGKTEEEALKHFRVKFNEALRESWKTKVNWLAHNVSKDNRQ
Chain of PI3Kδ (P27986 whole entry partner): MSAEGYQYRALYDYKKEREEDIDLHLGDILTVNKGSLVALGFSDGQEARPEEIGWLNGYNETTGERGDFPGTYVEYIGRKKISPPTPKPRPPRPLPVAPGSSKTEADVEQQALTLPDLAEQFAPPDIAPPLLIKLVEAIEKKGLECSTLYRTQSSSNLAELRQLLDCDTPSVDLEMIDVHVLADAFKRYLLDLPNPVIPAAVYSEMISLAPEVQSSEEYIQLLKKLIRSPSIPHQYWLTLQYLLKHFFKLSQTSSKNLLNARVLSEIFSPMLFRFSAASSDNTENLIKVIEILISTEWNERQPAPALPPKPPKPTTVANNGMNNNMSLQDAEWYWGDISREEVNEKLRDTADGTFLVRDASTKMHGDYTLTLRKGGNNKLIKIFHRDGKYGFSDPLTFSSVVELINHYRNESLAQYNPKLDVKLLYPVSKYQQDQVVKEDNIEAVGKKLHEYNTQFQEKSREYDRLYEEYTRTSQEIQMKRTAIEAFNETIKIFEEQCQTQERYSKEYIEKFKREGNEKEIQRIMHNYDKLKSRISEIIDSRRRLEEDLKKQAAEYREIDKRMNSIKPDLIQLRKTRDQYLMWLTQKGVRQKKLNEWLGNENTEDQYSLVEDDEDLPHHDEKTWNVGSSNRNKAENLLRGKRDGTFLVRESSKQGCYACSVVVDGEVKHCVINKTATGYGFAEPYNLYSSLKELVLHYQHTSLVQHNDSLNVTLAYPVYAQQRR
Chain of PI3Kβ (P42338 whole entry, species assumed): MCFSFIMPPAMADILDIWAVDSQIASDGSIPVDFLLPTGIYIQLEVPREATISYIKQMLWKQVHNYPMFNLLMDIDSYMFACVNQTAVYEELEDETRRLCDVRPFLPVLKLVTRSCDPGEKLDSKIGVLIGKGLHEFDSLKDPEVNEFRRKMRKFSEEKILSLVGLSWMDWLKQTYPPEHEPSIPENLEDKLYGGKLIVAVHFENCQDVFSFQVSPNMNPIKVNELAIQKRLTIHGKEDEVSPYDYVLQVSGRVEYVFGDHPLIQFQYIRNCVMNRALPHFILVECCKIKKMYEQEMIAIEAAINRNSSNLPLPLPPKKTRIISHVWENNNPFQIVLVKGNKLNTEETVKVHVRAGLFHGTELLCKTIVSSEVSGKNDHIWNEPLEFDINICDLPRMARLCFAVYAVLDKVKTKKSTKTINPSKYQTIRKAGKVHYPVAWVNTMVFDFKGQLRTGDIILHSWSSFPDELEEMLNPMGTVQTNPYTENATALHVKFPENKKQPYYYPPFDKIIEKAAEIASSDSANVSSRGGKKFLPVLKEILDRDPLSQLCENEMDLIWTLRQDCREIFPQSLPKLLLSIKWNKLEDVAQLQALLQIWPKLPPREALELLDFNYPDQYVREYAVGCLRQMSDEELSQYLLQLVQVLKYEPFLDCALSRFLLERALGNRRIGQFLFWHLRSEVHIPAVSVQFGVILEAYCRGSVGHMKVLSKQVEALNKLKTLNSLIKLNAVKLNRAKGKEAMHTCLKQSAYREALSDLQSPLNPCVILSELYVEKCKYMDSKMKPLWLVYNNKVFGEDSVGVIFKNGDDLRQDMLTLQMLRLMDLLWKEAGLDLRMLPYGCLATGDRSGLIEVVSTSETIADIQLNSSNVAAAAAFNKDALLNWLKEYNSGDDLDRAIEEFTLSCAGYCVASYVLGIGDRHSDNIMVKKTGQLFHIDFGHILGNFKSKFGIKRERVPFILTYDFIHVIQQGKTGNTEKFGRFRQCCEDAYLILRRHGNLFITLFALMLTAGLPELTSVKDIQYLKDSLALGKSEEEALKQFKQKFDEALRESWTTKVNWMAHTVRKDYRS
Chain of PI3Kβ (P27986 whole entry partner, species assumed): as the sequence (P27986 whole entry partner) above
Chain of PI3Kγ (P48736 whole entry, species assumed): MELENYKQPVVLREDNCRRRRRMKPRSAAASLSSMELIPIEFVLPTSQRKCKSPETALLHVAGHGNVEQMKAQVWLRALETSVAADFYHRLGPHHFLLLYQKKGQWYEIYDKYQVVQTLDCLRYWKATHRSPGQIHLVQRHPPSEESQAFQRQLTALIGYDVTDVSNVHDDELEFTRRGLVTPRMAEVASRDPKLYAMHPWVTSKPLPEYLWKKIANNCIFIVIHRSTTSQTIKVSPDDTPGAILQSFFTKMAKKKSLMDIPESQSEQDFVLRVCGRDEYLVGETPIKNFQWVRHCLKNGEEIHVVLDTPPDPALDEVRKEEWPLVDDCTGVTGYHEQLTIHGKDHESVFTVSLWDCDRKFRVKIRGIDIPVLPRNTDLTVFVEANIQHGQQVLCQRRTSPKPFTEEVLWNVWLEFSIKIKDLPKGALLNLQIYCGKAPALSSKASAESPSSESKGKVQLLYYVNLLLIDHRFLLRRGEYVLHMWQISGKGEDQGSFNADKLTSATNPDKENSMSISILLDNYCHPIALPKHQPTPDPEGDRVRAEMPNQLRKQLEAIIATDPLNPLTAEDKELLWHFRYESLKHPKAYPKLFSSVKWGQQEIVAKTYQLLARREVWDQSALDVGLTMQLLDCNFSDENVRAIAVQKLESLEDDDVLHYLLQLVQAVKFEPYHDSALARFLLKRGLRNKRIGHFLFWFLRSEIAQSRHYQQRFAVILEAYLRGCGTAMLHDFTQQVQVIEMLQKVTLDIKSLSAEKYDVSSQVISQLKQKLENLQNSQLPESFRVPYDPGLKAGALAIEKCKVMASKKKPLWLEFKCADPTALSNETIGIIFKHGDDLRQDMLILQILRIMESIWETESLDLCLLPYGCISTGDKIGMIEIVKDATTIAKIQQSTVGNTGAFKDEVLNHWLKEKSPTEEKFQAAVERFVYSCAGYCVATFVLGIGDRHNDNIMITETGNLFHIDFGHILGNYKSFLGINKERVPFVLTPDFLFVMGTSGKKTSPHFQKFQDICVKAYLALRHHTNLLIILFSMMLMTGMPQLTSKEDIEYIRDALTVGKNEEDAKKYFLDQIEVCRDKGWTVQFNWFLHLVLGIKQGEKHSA
Chain of PI3Kα (P42336 whole entry, species assumed): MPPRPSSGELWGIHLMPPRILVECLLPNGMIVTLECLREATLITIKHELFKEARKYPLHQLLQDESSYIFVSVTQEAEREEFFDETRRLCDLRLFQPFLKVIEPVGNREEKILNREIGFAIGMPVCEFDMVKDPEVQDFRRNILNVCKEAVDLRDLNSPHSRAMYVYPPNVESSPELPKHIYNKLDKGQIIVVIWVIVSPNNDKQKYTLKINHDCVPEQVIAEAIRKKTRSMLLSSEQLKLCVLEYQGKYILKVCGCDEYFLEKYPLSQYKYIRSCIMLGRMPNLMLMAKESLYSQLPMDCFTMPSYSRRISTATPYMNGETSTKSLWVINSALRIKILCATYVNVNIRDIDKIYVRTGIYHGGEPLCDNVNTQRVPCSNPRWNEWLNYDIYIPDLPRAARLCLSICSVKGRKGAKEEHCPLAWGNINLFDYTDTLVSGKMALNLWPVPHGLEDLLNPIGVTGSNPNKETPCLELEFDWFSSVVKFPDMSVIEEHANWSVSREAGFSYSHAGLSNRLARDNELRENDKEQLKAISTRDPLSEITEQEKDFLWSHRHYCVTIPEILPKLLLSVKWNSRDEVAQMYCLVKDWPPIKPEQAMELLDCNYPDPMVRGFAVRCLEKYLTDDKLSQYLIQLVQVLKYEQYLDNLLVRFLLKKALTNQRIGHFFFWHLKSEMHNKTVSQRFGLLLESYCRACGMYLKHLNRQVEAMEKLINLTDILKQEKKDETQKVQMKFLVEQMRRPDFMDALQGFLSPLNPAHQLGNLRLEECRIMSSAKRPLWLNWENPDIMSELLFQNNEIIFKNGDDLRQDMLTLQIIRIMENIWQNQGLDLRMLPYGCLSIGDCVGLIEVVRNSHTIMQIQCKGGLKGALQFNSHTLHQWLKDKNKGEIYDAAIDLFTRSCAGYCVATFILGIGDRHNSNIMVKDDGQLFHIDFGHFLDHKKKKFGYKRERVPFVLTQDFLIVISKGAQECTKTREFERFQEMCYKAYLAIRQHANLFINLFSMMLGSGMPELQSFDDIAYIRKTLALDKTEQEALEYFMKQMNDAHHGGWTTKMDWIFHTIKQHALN
Chain of PI3Kα (P27986 whole entry partner, species assumed): as the sequence (P27986 whole entry partner) above

As to `COc1ncc(-c2cc(-c3ncc(CN4CCN(C(C)C)CC4)o3)c3cn[nH]c3c2)cc1C(=O)Oc1ccc(C)cc1C` [Example 9, 2,4-Dimethylphenyl 5-(4-(5-((4-isopropylpiperazin-1-yl)methyl)oxazol-2-yl)-1H-indazol-6-yl)-2-methoxynicotinate], the IC50 on PI3Kδ was 0.398 µM; at PI3Kα, 7.94 µM; on PI3Kβ, 15.8 µM; on PI3Kγ it was 10 µM.

With `COc1ncc(-c2cc(-c3ncc(CN4CCN(C(C)C)CC4)o3)c3cn[nH]c3c2)cc1C(=O)Oc1ccc([N+](=O)[O-])cc1` [Example 4, 4-Nitrophenyl 5-(4-(5-((4-isopropylpiperazin-1-yl)methyl)oxazol-2-yl)-1H-indazol-6-yl)-2-methoxynicotinate], the IC50 at PI3Kδ was 0.000631 µM; on PI3Kα, 0.00631 µM; at PI3Kβ it was 0.0631 µM; at PI3Kγ, 1.58 µM.

On to `COc1ccc(OC(=O)c2cc(-c3cc(-c4ncc(CN5CCN(C(C)C)CC5)o4)c4cn[nH]c4c3)cnc2OC)cc1` [Example 10, 4-Methoxyphenyl 5-(4-(5-((4-isopropylpiperazin-1-yl)methyl)oxazol-2-yl)-1H-indazol-6-yl)-2-methoxynicotinate], for which the IC50 on PI3Kδ was 0.0501 µM; on PI3Kα it was 15.8 µM; on PI3Kβ it was 12.6 µM; at PI3Kγ, 10 µM.

For the compound `COc1ncc(-c2cc(-c3ncc(CN4CCN(C(C)C)CC4)o3)c3cn[nH]c3c2)cc1C(=O)Oc1ccccc1C(F)(F)F` [Example 5, 2-(Trifluoromethyl)phenyl 5-(4-(5-((4-isopropylpiperazin-1-yl)methyl)oxazol-2-yl)-1H-indazol-6-yl)-2-methoxynicotinate], the IC50 is 0.00631 µM on PI3Kδ, 1 µM on PI3Kα, 2 µM at PI3Kβ and 7.94 µM at PI3Kγ.

On to `COc1ncc(-c2cc(-c3ncc(CN4CCN(C(C)C)CC4)o3)c3cn[nH]c3c2)cc1C(=O)Oc1ccccc1[N+](=O)[O-]` [Example 3, 2-Nitrophenyl 5-(4-(5-((4-isopropylpiperazin-1-yl)methyl)oxazol-2-yl)-1H-indazol-6-yl)-2-methoxynicotinate], for which the IC50 was 0.00501 µM at PI3Kδ, 0.0794 µM on PI3Kα, 0.2 µM on PI3Kβ and 3.16 µM on PI3Kγ.

For the compound `COc1ncc(-c2cc(-c3ncc(CN4CCN(C(C)C)CC4)o3)c3cn[nH]c3c2)cc1C(=O)Oc1ccccc1` [Example 8, Phenyl 5-(4-(5-((4-isopropylpiperazin-1-yl)methyl)oxazol-2-yl)-1H-indazol-6-yl)-2-methoxynicotinate], the IC50 on PI3Kδ was 0.00631 µM; on PI3Kα, 2.51 µM; on PI3Kβ it was 3.98 µM; on PI3Kγ, 12.6 µM.

Regarding `COc1ncc(-c2cc(-c3ncc(CN4CCN(C(C)C)CC4)o3)c3cn[nH]c3c2)cc1C(=O)Oc1ccc(C(F)(F)F)cc1` [Example 6, 4-(Trifluoromethyl)phenyl 5-(4-(5-((4-isopropylpiperazin-1-yl)methyl)oxazol-2-yl)-1H-indazol-6-yl)-2-methoxynicotinate], the IC50 was 0.00398 µM at PI3Kδ, 2 µM on PI3Kα, 6.31 µM on PI3Kβ and 25.1 µM at PI3Kγ.

For `COc1ncc(-c2cc(-c3ncc(CN4CCN(C(C)C)CC4)o3)c3cn[nH]c3c2)cc1C(=O)OCC(F)(F)F` [Example 11, 2,2,2-Trifluoroethyl 5-(4-(5-((4-isopropylpiperazin-1-yl)methyl)oxazol-2-yl)-1H-indazol-6-yl)-2-methoxynicotinate], the IC50 on PI3Kδ was 0.316 µM; on PI3Kα it was 15.8 µM; on PI3Kβ it was more than 31.6 µM; on PI3Kγ it was 20 µM.
